These results are taken from patent US8785488B2 (Exelixis Patent Company LLC, priority 2009, dated 2014).

The target in experiment [1] is T1, h-TGR5 (Homo sapiens, UniProt Q8TDU6).
T1 construct: expressed in transfected cells
T1 sequence (Q8TDU6 1-330): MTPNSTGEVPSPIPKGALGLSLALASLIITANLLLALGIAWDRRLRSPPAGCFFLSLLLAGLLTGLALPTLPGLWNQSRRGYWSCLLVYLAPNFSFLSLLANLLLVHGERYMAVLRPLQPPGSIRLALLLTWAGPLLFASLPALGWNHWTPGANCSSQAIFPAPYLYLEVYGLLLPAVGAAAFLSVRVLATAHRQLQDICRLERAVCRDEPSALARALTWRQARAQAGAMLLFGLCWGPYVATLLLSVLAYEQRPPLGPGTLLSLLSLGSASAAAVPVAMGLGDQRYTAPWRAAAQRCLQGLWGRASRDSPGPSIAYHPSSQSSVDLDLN
The experiment can be described thus: TGR5 cAMP Assay using Cisbio cAMP Dynamic2 htrf kit (hTGR5CRE-luc HEK 293 cells). In kind it is cell-based. As to conditions: h-TGR5 cAMP EC50, Table 1; read-out: cAMP (EC50). The essentials: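 […], 4000 hTGR5CRE-luc HEK 293 cells per well, with 0.5 mM IBMX and d2-cAMP, were incubated 30 min at room temperature with compounds in 8-point half-log series, in quadruplicate.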

For experiment [2], the target named is T2, human TGR5 (h-TGR5) (Homo sapiens, UniProt Q8TDU6).
T2 construct: expressed in transfected cells
T2 sequence (Q8TDU6 1-330): T1 sequence (Q8TDU6 1-330)
The experiment can be described thus: TGR5/CRE-Luciferiase Assay (HEK 293 hTGR5/CRE-Luc cells). As to conditions: h-TGR5 CRE-Luc EC50, Table 1; read-out: CRE-Luc (EC50). Type of experiment: cell-based. The method, boiled down:
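HEK293 cells stably carrying hTGR5 and a CRE-luciferase reporter were exposed to serially diluted compounds (diluted in DMEM with 5% DMSO) for 6 h. Cells were then lysed in luciferase buffer, luminescence was read, and EC50 values were derived from dose-response curves.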

Molecules are shown by their SMILES.

As usually defined, the EC50 is the concentration giving half of the maximal effect. Turning to `COc1cc(C(C)(C)c2cnc(SCc3c(F)cc(C(=O)NCCCC(NC(=N)N)C(=O)O)cc3Cl)n2-c2ccc(F)cc2)ccc1Cl` [N-2-[amino(imino)methyl]-N-5-{[3-chloro-4-({[5-{1-[4-chloro-3-(methyloxy)phenyl]-1-methylethyl}-1-(4-fluorophenyl)-1H-imidazol-2-yl]thio}methyl)-5-fluorophenyl]carbonyl}-L-ornithine], the EC50 in experiment [1] and in experiment [2] was < 100 nM each time.
On to `CC(C)(c1ccc(Cl)c(Cl)c1)c1cnc(SCc2ccc(S(=O)(=O)O)cc2Cl)n1-c1ccc(F)cc1` [3-chloro-4-[({5-[1-(3,4-dichlorophenyl)-1-methylethyl]-1-(4-fluorophenyl)-1H-imidazol-2-yl}thio)methyl]benzenesulfonic acid], for which the EC50 in experiment [1] and in experiment [2] was 100 to 1000 nM throughout.
Turning to `CC(C)(c1ccc(Cl)c(Cl)c1)c1cnc(SCc2ccc(OCC(=O)O)c(S(N)(=O)=O)c2)n1-c1ccc(F)cc1` [({2-(aminosulfonyl)-4-[({5-[1-(3,4-dichlorophenyl)-1-methylethyl]-1-(4-fluorophenyl)-1H-imidazol-2-yl}thio)methyl]phenyl}oxy)acetic acid], the EC50 in experiment [1] and in experiment [2] was 100 to 1000 nM throughout.
With `COc1cc(C(C)(C)c2cnc(SCc3ccc(F)c(S(N)(=O)=O)c3)n2-c2ccc(F)cc2)ccc1Cl` [5-({[5-{1-[4-chloro-3-(methyloxy)phenyl]-1-methylethyl}-1-(4-fluorophenyl)-1H-imidazol-2-yl]thio}methyl)-2-fluorobenzenesulfonamide], the EC50 in experiment [1] and in experiment [2] was < 100 nM in each case.
As for `COc1cc(-n2c(C(C)(C)c3ccc(Cl)c(Cl)c3)cnc2SCC2CCN(c3nnn[nH]3)CC2)ccc1F` [4-[({5-[1-(3,4-dichlorophenyl)-1-methylethyl]-1-[4-fluoro-3-(methyloxy)phenyl]-1H-imidazol-2-yl}thio)methyl]-1-(1H-tetrazol-5-yl)piperidine], the concentration for a half-maximal effect (EC50) in experiment [1] and in experiment [2] was < 100 nM each time.
Regarding `COC[C@H]1CCCN1NC(=O)NS(=O)(=O)c1ccc(CSc2ncc(C(C)(C)c3ccc(Cl)c(OC)c3)n2-c2ccc(F)cc2)c(Cl)c1` [3-chloro-4-({[5-{1-[4-chloro-3-(methyloxy)phenyl]-1-methylethyl}-1-(4-fluorophenyl)-1H-imidazol-2-yl]thio}methyl)-N-[({(2R)-2-[(methyloxy)methyl]pyrrolidin-1-yl}amino)carbonyl]benzenesulfonamide], the EC50 in experiment [1] and in experiment [2] was 100 to 1000 nM each time.
For the compound `CC(C)(c1ccc(F)c(F)c1)c1cnc(SCc2ccc(S(=O)(=O)NC(=O)NN3CCCC3)cc2Cl)n1-c1ccc(F)c(F)c1` [3-chloro-4-[({1-(3,4-difluorophenyl)-5-[1-(3,4-difluorophenyl)-1-methylethyl]-1H-imidazol-2-yl}thio)methyl]-N-[(pyrrolidin-1-ylamino)carbonyl]benzenesulfonamide], the EC50 in experiment [1] was 1000 to 10000 nM; in experiment [2], 100 to 1000 nM.
Consider `COc1cc(-n2c(C(C)(C)c3ccc(S(C)(=O)=O)cc3)cnc2SCc2ccc(S(=O)(=O)NC(=O)NN3CCCC3)cc2Cl)ccc1F` [3-chloro-4-{[(1-[4-fluoro-3-(methyloxy)phenyl]-5-{1-methyl-1-[4-(methylsulfonyl)phenyl]ethyl}-1H-imidazol-2-yl)thio]methyl}-N-[(pyrrolidin-1-ylamino)carbonyl]benzenesulfonamide], for which the results for the EC50 in experiment [1] and in experiment [2] were 1000 to 10000 nM and 100 to 1000 nM, respectively.
With `CCNC(=O)NS(=O)(=O)c1ccc(CSc2ncc(C(C)(C)c3ccc(Cl)c(OC)c3)n2-c2ccc(F)cc2)c(Cl)c1` [3-chloro-4-({[5-{1-[4-chloro-3-(methyloxy)phenyl]-1-methylethyl}-1-(4-fluorophenyl)-1H-imidazol-2-yl]thio}methyl)-N-[(ethylamino)carbonyl]benzenesulfonamide], the EC50 was < 100 nM in experiment [1] and 100 to 1000 nM in experiment [2].
As for `COc1cc(-n2c(C(C)(C)c3ccc4onc(N)c4c3)cnc2SCc2c(F)cc(C(=O)O)cc2F)ccc1F` [4-[({5-[1-(3-amino-1,2-benzisoxazol-5-yl)-1-methylethyl]-1-[4-fluoro-3-(methyloxy)phenyl]-1H-imidazol-2-yl}thio)methyl]-3,5-difluorobenzoic acid], the EC50 in experiment [1] and in experiment [2] was < 100 nM in each case.
Take `CC(C)(c1ccc(Cl)c(Cl)c1)c1cnc(SCc2ccc(S(=O)(=O)NC(=O)NN3CCCC3)cc2Cl)n1-c1ncc(F)cc1F` [3-chloro-4-[({5-[1-(3,4-dichlorophenyl)-1-methylethyl]-1-(3,5-difluoropyridin-2-yl)-1H-imidazol-2-yl}thio)methyl]-N-[(pyrrolidin-1-ylamino)carbonyl]benzenesulfonamide]: the values for the EC50 in experiment [1] and in experiment [2] were 1000 to 10000 nM and 100 to 1000 nM, respectively.
Consider `COc1cc(C(C)(C)c2cnc(SCc3cc(OCCNC(=N)N)c(Cl)cc3F)n2-c2ccc(F)cc2)ccc1Cl` [1-(2-{[2-chloro-5-({[5-{1-[4-chloro-3-(methyloxy)phenyl]-1-methylethyl}-1-(4-fluorophenyl)-1H-imidazol-2-yl]thio}methyl)-4-fluorophenyl]oxy}ethyl)guanidine], for which the EC50 in experiment [1] is < 100 nM; in experiment [2] it was 100 to 1000 nM.
For the compound `CC(C)(c1ccc(Cl)c(Cl)c1)c1cnc(SCC2CCN(c3nnn[nH]3)C2)n1-c1ccc(F)cc1` (centres unmarked) [5-{3-[({5-[1-(3,4-dichlorophenyl)-1-methylethyl]-1-(4-fluorophenyl)-1H-imidazol-2-yl}thio)methyl]pyrrolidin-1-yl}-1H-tetrazole], the figures for the EC50 in experiment [1] and in experiment [2] were 1000 to 10000 nM and 100 to 1000 nM, respectively.
On to `COc1ccc(C(C)(C)c2cnc(SCc3c(F)cccc3Cl)n2-c2ccc(F)cc2)cc1Cl` [2-{[(2-chloro-6-fluorophenyl)methyl]thio}-5-{1-[3-chloro-4-(methyloxy)phenyl]-1-methylethyl}-1-(4-fluorophenyl)-1H-imidazole], for which the EC50 in experiment [1] and in experiment [2] was < 100 nM each time.
Consider `COc1cc(C(C)(C)c2cnc(SCc3ccc(C(=O)NCCS(=O)(=O)O)cc3F)n2-c2ccc(F)cc2)ccc1Cl` [2-({[4-({[5-{1-[4-chloro-3-(methyloxy)phenyl]-1-methylethyl}-1-(4-fluorophenyl)-1H-imidazol-2-yl]thio}methyl)-3-fluorophenyl]carbonyl}amino)ethanesulfonic acid], for which the EC50 in experiment [1] and in experiment [2] was < 100 nM throughout.
On to `CC(=O)COc1ccc(CSc2ncc(C(C)(C)c3ccc(Cl)c(Cl)c3)n2-c2ccc(F)cc2)cc1S(N)(=O)=O` [5-[({5-[1-(3,4-dichlorophenyl)-1-methylethyl]-1-(4-fluorophenyl)-1H-imidazol-2-yl}thio)methyl]-2-[(2-oxopropyl)oxy]benzenesulfonamide], for which the EC50 in experiment [1] is 100 to 1000 nM; in experiment [2], < 100 nM.
With `COc1cc(C(C)(C)c2cnc(SCc3ccc(S(=O)(=O)NC(=O)NN4CCCC4)cc3Cl)n2-c2cc(C)c(F)cn2)ccc1Cl` [3-chloro-4-({[5-{1-[4-chloro-3-(methyloxy)phenyl]-1-methylethyl}-1-(5-fluoro-4-methylpyridin-2-yl)-1H-imidazol-2-yl]thio}methyl)-N-[(pyrrolidin-1-ylamino)carbonyl]benzenesulfonamide], the EC50 in experiment [1] lay in the range of 1000 to 10000 nM; in experiment [2], 100 to 1000 nM.
The matching figures for `CC(C)NC(=O)NS(=O)(=O)c1ccc(CSc2ncc(C(C)(C)c3ccc(F)c(C(F)F)c3)n2-c2ccc(F)cc2)c(Cl)c1` [3-chloro-4-({[5-{1-[3-(difluoromethyl)-4-fluorophenyl]-1-methylethyl}-1-(4-fluorophenyl)-1H-imidazol-2-yl]thio}methyl)-N-{[(1-methylethyl)amino]carbonyl} benzenesulfonamide]: 100 to 1000 nM and 100 to 1000 nM.
Regarding `CC(C)(c1ccc(Cl)c(Cl)c1)c1cnc(COC2CCN(S(C)(=O)=O)CC2)n1-c1ccc(F)cc1` [4-[({5-[1-(3,4-dichlorophenyl)-1-methylethyl]-1-(4-fluorophenyl)-1H-imidazol-2-yl}methyl)oxy]-1-(methylsulfonyl)piperidine], the values for the EC50 in experiment [1] and in experiment [2] were 100 to 1000 nM and 1000 to 10000 nM, respectively.
Consider `COc1cc(C(C)(C)c2cnc(SCc3ccc(S(=O)(=O)NC(=O)NC4CC4)cc3Cl)n2-c2ccc(F)cc2)ccc1Cl` [3-chloro-4-({[5-{1-[4-chloro-3-(methyloxy)phenyl]-1-methylethyl}-1-(4-fluorophenyl)-1H-imidazol-2-yl]thio}methyl)-N-[(cyclopropylamino)carbonyl] benzenesulfonamide], for which the EC50 in experiment [1] and in experiment [2] was < 100 nM throughout.
As to `CC(C)(c1ccc(Cl)c(Cl)c1)c1cnc(CNC2CCN(S(C)(=O)=O)CC2)n1-c1ccc(F)cc1` [N-({5-[1-(3,4-dichlorophenyl)-1-methylethyl]-1-(4-fluorophenyl)-1H-imidazol-2-yl}methyl)-1-(methylsulfonyl)piperidin-4-amine], the EC50 in experiment [1] and in experiment [2] was 1000 to 10000 nM each time.
As to `COc1cc(C(C)(C)c2cnc(SCc3ccc(S(=O)(=O)NC(=O)NN4CCN(C)CC4)cc3Cl)n2-c2ccc(F)cc2)ccc1Cl` [3-chloro-4-({[5-{1-[4-chloro-3-(methyloxy)phenyl]-1-methylethyl}-1-(4-fluorophenyl)-1H-imidazol-2-yl]thio}methyl)-N-{[(4-methylpiperazin-1-yl)amino]carbonyl} benzenesulfonamide], the EC50 in experiment [1] and in experiment [2] was 100 to 1000 nM throughout.
